What was measured:
[1] = molecular target: Cholinesterase (Equus caballus, UniProt P81908)
Description: Inhibition of equine serum BChE using butyrylthiocholine iodide as substrate pretreated for 4.5 mins followed by substrate addition and measured after 2.5 mins by Ellman's method

[2] = molecular target: Acetylcholinesterase (Electrophorus electricus, UniProt O42275)
Description: Inhibition of electric eel AChE using acetylthiocholine iodide as substrate pretreated for 4.5 mins followed by substrate addition and measured after 2.5 mins by Ellman's method

[3] = test system: HepG2; assay: cells; details: Homo sapiens, HepG2, 72 h
Description: Cytotoxicity against human HepG2 cells after 72 hrs by alamar blue assay

[4] = molecular target: Acetylcholinesterase (Homo sapiens, UniProt P22303); assay: Inhibition of recombinant human AChE expressed in HEK293 cells using acetylthiocholine iodide as substrate pretreated for 4.5 mins followed by substrate addition and measured after 2.5 mins by Ellman's method
[5] = organism: Homo sapiens; assay: Selectivity ratio of compound effect for displacement of [3H]NMS from recombinant human M2 receptor expressed in CHO cell membranes to displacement of [3H]NMS from recombinant human M1 receptor expressed in CHO cell membranes
[6] = molecular target: Cholinesterase (Homo sapiens, UniProt P06276); assay: Inhibition of human serum BChE using butyrylthiocholine iodide as substrate pretreated for 4.5 mins followed by substrate addition and measured after 2.5 mins by Ellman's method
[7] = physchem; details: octanol/water
Description: Octanol/water partition co-efficient, log P of the compound by RP-HPLC analysis

[8] = molecular target: Acetylcholinesterase (Electrophorus electricus) (UniProt O42275); assay: Inhibition of electric eel AChE at 100 uM using acetylthiocholine iodide as substrate pretreated for 4.5 mins followed by substrate addition and measured after 2.5 mins by Ellman's method relative to control
Chain of Acetylcholinesterase (Electrophorus electricus) (O42275 24-633 limits assumed): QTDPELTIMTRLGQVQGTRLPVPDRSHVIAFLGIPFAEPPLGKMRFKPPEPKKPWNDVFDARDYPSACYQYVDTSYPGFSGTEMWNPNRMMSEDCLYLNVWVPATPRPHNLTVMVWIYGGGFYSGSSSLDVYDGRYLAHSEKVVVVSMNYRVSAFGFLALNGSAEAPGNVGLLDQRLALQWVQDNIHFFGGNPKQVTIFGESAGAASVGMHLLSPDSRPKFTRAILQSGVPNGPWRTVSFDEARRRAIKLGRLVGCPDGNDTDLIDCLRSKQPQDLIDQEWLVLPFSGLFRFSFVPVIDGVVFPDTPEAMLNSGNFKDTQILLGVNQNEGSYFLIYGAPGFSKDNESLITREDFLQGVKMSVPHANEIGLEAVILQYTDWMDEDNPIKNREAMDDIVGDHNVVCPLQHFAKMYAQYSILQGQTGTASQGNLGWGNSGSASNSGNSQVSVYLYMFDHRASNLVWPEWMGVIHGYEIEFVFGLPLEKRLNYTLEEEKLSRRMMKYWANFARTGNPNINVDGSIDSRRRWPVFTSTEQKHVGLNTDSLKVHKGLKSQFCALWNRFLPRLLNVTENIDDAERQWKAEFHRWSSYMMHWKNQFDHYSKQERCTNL

Chain of Acetylcholinesterase (Homo sapiens, UniProt P22303) (P22303 whole entry): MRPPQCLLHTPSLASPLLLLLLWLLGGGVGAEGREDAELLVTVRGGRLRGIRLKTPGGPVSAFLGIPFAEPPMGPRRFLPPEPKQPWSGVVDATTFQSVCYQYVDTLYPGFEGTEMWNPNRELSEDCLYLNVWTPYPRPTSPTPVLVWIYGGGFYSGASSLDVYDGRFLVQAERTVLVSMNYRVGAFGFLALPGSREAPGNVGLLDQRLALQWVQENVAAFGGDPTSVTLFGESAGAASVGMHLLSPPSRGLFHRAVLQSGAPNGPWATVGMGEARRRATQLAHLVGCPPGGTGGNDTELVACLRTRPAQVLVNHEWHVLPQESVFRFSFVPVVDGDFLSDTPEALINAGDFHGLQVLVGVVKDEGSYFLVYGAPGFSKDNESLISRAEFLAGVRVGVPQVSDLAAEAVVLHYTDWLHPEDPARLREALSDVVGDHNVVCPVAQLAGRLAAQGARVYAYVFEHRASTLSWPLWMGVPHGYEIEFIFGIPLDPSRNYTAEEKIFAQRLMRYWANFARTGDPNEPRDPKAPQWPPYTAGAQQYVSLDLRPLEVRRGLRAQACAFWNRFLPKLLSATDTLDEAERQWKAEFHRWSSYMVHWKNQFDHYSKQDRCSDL
Chain of Acetylcholinesterase (Electrophorus electricus, UniProt O42275) (O42275 whole entry): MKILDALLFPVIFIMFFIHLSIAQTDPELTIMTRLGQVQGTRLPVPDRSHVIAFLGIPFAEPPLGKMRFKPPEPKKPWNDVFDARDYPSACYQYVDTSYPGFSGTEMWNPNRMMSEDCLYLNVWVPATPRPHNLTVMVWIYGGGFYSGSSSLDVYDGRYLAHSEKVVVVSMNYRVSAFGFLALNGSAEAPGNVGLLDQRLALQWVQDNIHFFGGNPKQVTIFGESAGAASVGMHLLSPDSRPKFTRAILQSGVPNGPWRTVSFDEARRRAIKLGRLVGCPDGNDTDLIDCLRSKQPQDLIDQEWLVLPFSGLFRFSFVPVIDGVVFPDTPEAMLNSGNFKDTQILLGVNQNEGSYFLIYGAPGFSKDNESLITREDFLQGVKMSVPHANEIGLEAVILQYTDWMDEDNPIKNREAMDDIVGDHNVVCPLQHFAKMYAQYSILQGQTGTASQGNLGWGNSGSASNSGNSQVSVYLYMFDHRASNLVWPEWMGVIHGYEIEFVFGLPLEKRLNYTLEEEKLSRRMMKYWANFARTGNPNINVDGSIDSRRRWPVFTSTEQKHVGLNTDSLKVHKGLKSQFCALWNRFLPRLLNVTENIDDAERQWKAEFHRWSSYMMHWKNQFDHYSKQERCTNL
Chain of Cholinesterase (Homo sapiens, UniProt P06276) (P06276 whole entry): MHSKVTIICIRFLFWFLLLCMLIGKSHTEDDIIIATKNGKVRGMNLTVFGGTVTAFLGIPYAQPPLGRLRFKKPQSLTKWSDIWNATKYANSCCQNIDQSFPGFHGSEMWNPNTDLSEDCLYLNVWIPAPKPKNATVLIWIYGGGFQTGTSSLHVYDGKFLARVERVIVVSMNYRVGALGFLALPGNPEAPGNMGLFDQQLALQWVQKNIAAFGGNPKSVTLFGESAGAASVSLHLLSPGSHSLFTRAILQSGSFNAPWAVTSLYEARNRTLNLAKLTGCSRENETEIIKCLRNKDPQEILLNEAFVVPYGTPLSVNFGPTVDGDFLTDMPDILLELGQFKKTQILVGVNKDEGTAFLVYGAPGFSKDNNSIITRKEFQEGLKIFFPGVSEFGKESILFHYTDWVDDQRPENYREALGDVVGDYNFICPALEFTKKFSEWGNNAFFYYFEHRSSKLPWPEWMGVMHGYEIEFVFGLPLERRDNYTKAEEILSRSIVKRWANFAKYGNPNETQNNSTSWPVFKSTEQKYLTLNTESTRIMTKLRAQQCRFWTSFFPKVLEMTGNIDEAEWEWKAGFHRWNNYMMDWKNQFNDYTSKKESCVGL
Chain of Cholinesterase (Equus caballus, UniProt P81908) (P81908 whole entry): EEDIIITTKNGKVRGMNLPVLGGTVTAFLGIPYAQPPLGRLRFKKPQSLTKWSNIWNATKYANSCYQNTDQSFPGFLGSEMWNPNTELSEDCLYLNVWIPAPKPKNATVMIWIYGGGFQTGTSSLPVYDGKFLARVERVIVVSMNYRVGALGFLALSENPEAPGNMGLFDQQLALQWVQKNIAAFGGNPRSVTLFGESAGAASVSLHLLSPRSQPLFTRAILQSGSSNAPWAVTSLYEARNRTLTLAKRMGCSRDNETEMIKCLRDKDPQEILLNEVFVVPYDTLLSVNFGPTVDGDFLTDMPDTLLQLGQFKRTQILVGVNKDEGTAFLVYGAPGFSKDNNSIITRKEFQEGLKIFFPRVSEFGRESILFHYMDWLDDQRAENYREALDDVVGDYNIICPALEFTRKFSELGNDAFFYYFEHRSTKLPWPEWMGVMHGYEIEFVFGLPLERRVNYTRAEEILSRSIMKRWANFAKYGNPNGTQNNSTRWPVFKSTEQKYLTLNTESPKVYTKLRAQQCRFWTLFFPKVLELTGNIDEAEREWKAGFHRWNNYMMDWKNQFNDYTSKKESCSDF

Compound	IC50 [1]	IC50 [2]	IC50 [3]	IC50 [4]	Selectivity ratio [5]	IC50 [6]	logP [7]	inhibition [8]
c1ccc2c(NCCCCCCCNc3c4c(nc5ccccc35)CCCC4)c3c(nc2c1)CCCC3	0.724 nM	0.0331 nM	< 1380 nM	–	–	–	–	–
BrCCCCCCCNc1c2c(nc3ccccc13)CCCC2	263 nM	0.398 nM	–	–	–	–	–	–
C[N+](C)(CC#CCOC1=NOCC1)CCCCCCCCCCNc1c2c(nc3ccccc13)CCCC2	1.78 nM	0.155 nM	32200 nM	1.78 nM	8	1.82 nM	3.28	–
C[N+](C)(CC#CCOc1ccon1)CCCCCC[N+](C)(C)CCCN1C(=O)c2ccccc2C1=O	38900 nM	–	–	–	–	–	0.99	32.2%
CC(C)(CN1C(=O)c2cccc3cccc(c23)C1=O)C[N+](C)(C)CCCCCCCCC[N+](C)(C)CC#CCOC1=NOCC1	324 nM	363 nM	–	–	–	–	1.69	–
C[N+](C)(CC#CCOC1=NOCC1)CCCCCCC[N+](C)(C)CCCN1C(=O)c2ccccc2C1=O	6460 nM	14800 nM	–	–	–	–	0.79	–
CC(C)(CN1C(=O)c2cccc3cccc(c23)C1=O)C[N+](C)(C)CCCCCCC[N+](C)(C)CC#CCOC1=NOCC1	204 nM	912 nM	–	–	–	–	1.7	–
C[N+](C)(CC#CCOC1=NOCC1)CCCCCCCC[N+](C)(C)CCCN1C(=O)c2ccccc2C1=O	7410 nM	12900 nM	–	–	–	–	0.78	–
C[N+](C)(CC#CCOC1=NOCC1)CCCCCCCCC[N+](C)(C)CCCN1C(=O)c2ccccc2C1=O	13200 nM	15800 nM	–	–	–	–	0.79	–
C[N+](C)(CC#CCOc1ccon1)CCCC[N+](C)(C)CCCN1C(=O)c2ccccc2C1=O	85100 nM	–	–	–	–	–	1.55	19.1%
CC(C)(CN1C(=O)c2cccc3cccc(c23)C1=O)C[N+](C)(C)CCCCCCCCCC[N+](C)(C)CC#CCOC1=NOCC1	102 nM	316 nM	–	1070 nM	–	263 nM	1.77	–
C[N+](C)(CC#CCOc1ccon1)CCCCCCCC[N+](C)(C)CCCN1C(=O)c2ccccc2C1=O	7940 nM	67600 nM	–	–	–	–	0.83	–
C[N+](C)(CC#CCOC1=NOCC1)CCCCCCCCCC[N+](C)(C)CCCN1C(=O)c2ccccc2C1=O	4270 nM	5500 nM	–	13200 nM	–	1950 nM	0.8	–
c1ccc2c(CCCCCCCCCCNc3c4c(nc5ccccc35)CCCC4)c3c(nc2c1)CCCC3	0.457 nM	1 nM	< 1250 nM	–	–	–	–	–
BrCCCCCCCCCCNc1c2c(nc3ccccc13)CCCC2	8.71 nM	0.562 nM	–	–	–	–	–	–
C[N+](C)(CC#CCOC1=NOCC1)CCCCCC[N+]1(C)CCC(N2C(=O)c3ccccc3C2=O)CC1 (configuration not stated)	10700 nM	2400 nM	–	–	–	–	0.84	–
C[N+](C)(CC#CCOC1=NOCC1)CCCCCC[N+]1(C)CCC(N2C(=O)c3cccc4cccc(c34)C2=O)CC1 (configuration not stated)	851 nM	1050 nM	–	–	–	–	1.54	–
CC(C)(CN1C(=O)c2cccc3cccc(c23)C1=O)C[N+](C)(C)CCCCCCCC[N+](C)(C)CC#CCOC1=NOCC1	347 nM	794 nM	–	–	–	–	1.61	–
C[N+](C)(CC#CCOC1=NOCC1)CCCCCCCNc1c2c(nc3ccccc13)CCCC2	5.13 nM	1.74 nM	> 160000 nM	2 nM	3	4.57 nM	2.05	–

From ChEMBL document CHEMBL4257444, “Novel bipharmacophoric inhibitors of the cholinesterases with affinity to the muscarinic receptors M1 and M2” (Medchemcomm, 2017)
